Measurements taken from ChEMBL document CHEMBL1137017, “In vitro antiviral activity and cross-resistance profile of PL-100, a novel protease inhibitor of human immunodeficiency virus type 1” (Antimicrob Agents Chemother, 2007).

Legend:
[1] = system: Human immunodeficiency virus 1; assay: Resistance index, ratio of EC50 for HIV1 with protease 46I/50V mutation to EC50 for wild type HIV1 NL4-3 in HEK293 cells after 48 hrs by replication-deffective luciferase reporter gene-based phenotypic assay; format: functional
[2] = system: Human immunodeficiency virus 1; assay: Resistance index, ratio of EC50 for HIV1 with protease 46I/47A/84V mutation to EC50 for wild type HIV1 NL4-3 in HEK293 cells after 48 hrs by replication-deffective luciferase reporter gene-based phenotypic assay; format: functional
[3] = system: Human immunodeficiency virus 1; assay: Resistance index, ratio of EC50 for HIV1 with protease 46I/53L/82T/90M mutation to EC50 for wild type HIV1 NL4-3 in HEK293 cells after 48 hrs by replication-deffective luciferase reporter gene-based phenotypic assay; format: functional
[4] = system: Human immunodeficiency virus 1; assay: Resistance index, ratio of EC50 for HIV1 with protease 54V/82A mutation to EC50 for wild type HIV1 NL4-3 in HEK293 cells after 48 hrs by replication-deffective luciferase reporter gene-based phenotypic assay; format: functional
[5] = system: Human immunodeficiency virus 1; assay: Resistance index, ratio of EC50 for non-B type HIV1 with protease 46I/47V/84V mutation to EC50 for wild type HIV1 NL4-3 in HEK293 cells after 48 hrs by replication-deffective luciferase reporter gene-based phenotypic assay; format: functional
[6] = system: Human immunodeficiency virus 1; assay: Resistance index, ratio of EC50 for HIV1 with protease 33F/54V/82A/84V mutation to EC50 for wild type HIV1 NL4-3 in HEK293 cells after 48 hrs by replication-deffective luciferase reporter gene-based phenotypic assay; format: functional
[7] = Selectivity index, ratio of CC50 for human MT4 cells to EC50 for HIV1 NL4-3; format: toxicity, cell-based; settings: read-out: Ratio CC50/EC50
[8] = system: Human immunodeficiency virus 1; assay: Resistance index, ratio of EC50 for HIV1 with protease 37S/41K/70E mutation to EC50 for wild type HIV1 NL4-3 in HEK293 cells after 48 hrs by replication-deffective luciferase reporter gene-based phenotypic assay; format: functional
[9] = system: Human immunodeficiency virus 1; assay: Resistance index, ratio of EC50 for HIV1 with protease 33F/54V/73S/82A/90M mutation to EC50 for wild type HIV1 NL4-3 in HEK293 cells after 48 hrs by replication-deffective luciferase reporter gene-based phenotypic assay; format: functional
[10] = system: Human immunodeficiency virus 1; assay: Resistance index, ratio of EC50 for HIV1 with protease 54V/82A/84V/90M mutation to EC50 for wild type HIV1 NL4-3 in HEK293 cells after 48 hrs by replication-deffective luciferase reporter gene-based phenotypic assay; format: functional
[11] = system: Human immunodeficiency virus 1; assay: Antiviral activity against wild type HIV1 NL4-3 in HEK293 cells after 48 hrs by replication-deffective luciferase reporter gene-based phenotypic assay; format: functional, organism-based; settings: Human immunodeficiency virus 1, NL4-3, HEK293, 48 h
[12] = system: Human immunodeficiency virus 1; assay: Resistance index, ratio of EC50 for HIV1 with protease 46L/54V/82A/90M mutation to EC50 for wild type HIV1 NL4-3 in HEK293 cells after 48 hrs by replication-deffective luciferase reporter gene-based phenotypic assay; format: functional
[13] = system: Human immunodeficiency virus 1; assay: Resistance index, ratio of EC50 for HIV1 with protease 33I/46I/84V/88D/90M mutation to EC50 for wild type HIV1 NL4-3 in HEK293 cells after 48 hrs by replication-deffective luciferase reporter gene-based phenotypic assay; format: functional
[14] = system: Human immunodeficiency virus 1; assay: Resistance index, ratio of EC50 for HIV1 with protease 30N/33F/46L/54L/84V/88D mutation to EC50 for wild type HIV1 NL4-3 in HEK293 cells after 48 hrs by replication-deffective luciferase reporter gene-based phenotypic assay; format: functional
[15] = system: Human immunodeficiency virus 1; assay: Resistance index, ratio of EC50 for HIV1 with protease 46I mutation to EC50 for wild type HIV1 NL4-3 in HEK293 cells after 48 hrs by replication-deffective luciferase reporter gene-based phenotypic assay; format: functional
[16] = system: Human immunodeficiency virus 1; assay: Resistance index, ratio of EC50 for HIV1 with protease 33F/54V/82A/84V/90M mutation to EC50 for wild type HIV1 NL4-3 in HEK293 cells after 48 hrs by replication-deffective luciferase reporter gene-based phenotypic assay; format: functional
[17] = system: Human immunodeficiency virus 1; assay: Resistance index, ratio of EC50 for HIV1 with protease 46I/54V/82A/84V mutation to EC50 for wild type HIV1 NL4-3 in HEK293 cells after 48 hrs by replication-deffective luciferase reporter gene-based phenotypic assay; format: functional
[18] = system: Human immunodeficiency virus 1; assay: Antiviral activity against wild type HIV1 NL4-3 infected in MT4 cells after 6 days by MTT assay; format: functional, organism-based; settings: Human immunodeficiency virus 1, NL4-3, MT4, 144 h
[19] = system: Human immunodeficiency virus 1; assay: Resistance index, ratio of EC50 for HIV1 with protease 84V/90M mutation to EC50 for wild type HIV1 NL4-3 in HEK293 cells after 48 hrs by replication-deffective luciferase reporter gene-based phenotypic assay; format: functional
[20] = system: Human immunodeficiency virus 1; assay: Resistance index, ratio of EC50 for HIV1 with protease 33F/54V/73S/82A/84V/90M mutation to EC50 for wild type HIV1 NL4-3 in HEK293 cells after 48 hrs by replication-deffective luciferase reporter gene-based phenotypic assay; format: functional
Cathepsin D = Cathepsin D (Homo sapiens, UniProt P07339); assay: Inhibition of human cathepsin D
[21] = system: Human immunodeficiency virus 1; assay: Resistance index, ratio of EC50 for HIV1 with protease 33F/50V mutation to EC50 for wild type HIV1 NL4-3 in HEK293 cells after 48 hrs by replication-deffective luciferase reporter gene-based phenotypic assay; format: functional
[22] = system: Human immunodeficiency virus 1; assay: Resistance index, ratio of EC50 for SQV-resistant HIV1 SaqR carrying G48V/L90MV mutation to EC50 for wild type HIV1 NL4-3 in HEK293 cells after 48 hrs by replication-deffective luciferase reporter gene-based phenotypic assay; format: functional
[23] = system: Human immunodeficiency virus 1; assay: Resistance index, ratio of EC50 for HIV1 with protease 33F/46L/54V/82A/84V/90M mutation to EC50 for wild type HIV1 NL4-3 in HEK293 cells after 48 hrs by replication-deffective luciferase reporter gene-based phenotypic assay; format: functional
[24] = Inhibition of pig pepsin; parameters: species or system Sus scrofa
[25] = system: Human immunodeficiency virus 1; assay: Resistance index, ratio of EC50 for HIV1 with protease 30N/88D/90M mutation to EC50 for wild type HIV1 NL4-3 in HEK293 cells after 48 hrs by replication-deffective luciferase reporter gene-based phenotypic assay; format: functional
[26] = system: Human immunodeficiency virus 1; assay: Resistance index, ratio of EC50 for HIV1 with protease 24I/33F/46I/54L/82A mutation to EC50 for wild type HIV1 NL4-3 in HEK293 cells after 48 hrs by replication-deffective luciferase reporter gene-based phenotypic assay; format: functional
[27] = system: Human immunodeficiency virus 1; assay: Resistance index, ratio of EC50 for HIV1 with protease 24I/33F/54V/82A/84V mutation to EC50 for wild type HIV1 NL4-3 in HEK293 cells after 48 hrs by replication-deffective luciferase reporter gene-based phenotypic assay; format: functional
[28] = system: Human immunodeficiency virus 1; assay: Resistance index, ratio of EC50 for HIV1 with protease 46I/82T/84V mutation to EC50 for wild type HIV1 NL4-3 in HEK293 cells after 48 hrs by replication-deffective luciferase reporter gene-based phenotypic assay; format: functional

Cathepsin D, sequence (P07339 65-162 limits assumed): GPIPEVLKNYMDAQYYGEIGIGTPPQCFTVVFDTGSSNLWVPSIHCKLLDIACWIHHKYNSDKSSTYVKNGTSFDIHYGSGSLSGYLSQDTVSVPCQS
Cathepsin D, sequence (P07339 169-412 limits assumed): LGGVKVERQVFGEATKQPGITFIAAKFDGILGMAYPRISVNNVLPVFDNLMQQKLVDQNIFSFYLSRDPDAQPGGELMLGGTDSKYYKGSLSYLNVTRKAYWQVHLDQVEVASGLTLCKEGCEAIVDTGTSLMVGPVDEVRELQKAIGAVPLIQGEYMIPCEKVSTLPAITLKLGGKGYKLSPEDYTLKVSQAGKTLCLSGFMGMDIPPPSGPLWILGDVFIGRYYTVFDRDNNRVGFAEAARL

Compound	Ratio EC50 [1]	Ratio EC50 [2]	Ratio EC50 [3]	Ratio EC50 [4]	Ratio EC50 [5]	Ratio EC50 [6]	selectivity ratio [7]	Ratio EC50 [8]	Ratio EC50 [9]	Ratio EC50 [10]	EC50 [11] [nM]	Ratio EC50 [12]	Ratio EC50 [13]	Ratio EC50 [14]	Ratio EC50 [15]	Ratio EC50 [16]	Ratio EC50 [17]	EC50 [18] [nM]	Ratio EC50 [19]	Ratio EC50 [20]	other results
COC(=O)N[C@H](C(=O)N[C@@H](Cc1ccccc1)[C@@H](O)CN(Cc1ccc(-c2ccccn2)cc1)NC(=O)[C@@H](NC(=O)OC)C(C)(C)C)C(C)(C)C [ATAZANAVIR]	0.4	9.5	33.7	3.9	7.1	5.5	17800	1.4	11.9	50.5	1.5	11.8	38	66.1	0.7	24.7	5.8	4	–	–	–
COC(=O)N[C@H](C(=O)NCCCC[C@@H](CO)N(CC(C)C)S(=O)(=O)c1ccc(N)cc1)C(c1ccccc1)c1ccccc1 [PPL-100]	0.8	14.8	8.3	1.8	4.3	3.4	2310	0.9	5.3	7	5.3	3.2	6.3	23.2	1.5	9.6	3.7	16	2.3	37.2	IC50 (Cathepsin D): > 50000 nM; Ratio EC50 [21]: 2.7; fold change (FC) [22]: 2.4; Ratio EC50 [23]: 18.4; IC50 [24]: > 50000 nM; Ratio EC50 [25]: 1.4; Ratio EC50 [26]: 6.4; Ratio EC50 [27]: 4.2; Ratio EC50 [28]: 1.2
Cc1c(O)cccc1C(=O)N[C@@H](CSc1ccccc1)[C@H](O)CN1C[C@H]2CCCC[C@H]2C[C@H]1C(=O)NC(C)(C)C	1.3	10.4	32.9	12.1	5.1	5.8	276	1.6	20	33.1	5.8	14.1	27.9	400	1.6	21.1	8.8	29	12.1	172.1	Ratio EC50 [21]: 3.6; Ratio EC50 [23]: 31.4; Ratio EC50 [25]: 42.1; Ratio EC50 [26]: 8.1; Ratio EC50 [27]: 31.4; Ratio EC50 [28]: 1.6
